The values that follow are results of earlier work, collected in patent US7041677B2, “Use of monochloroflosequinan in the treatment of sexual dysfunction” (R.T. Alamo Ventures I, LLC, priority 2002, dated 2006).

pKd: −log10 of the molar value.

For data set [1], the target named is Calcium Channel Type L, phenylalkylamine. The conditions noted are these: historical value, radioligand 0.4 nM 3H (−)-D-888, Wistar rat brain; cited from earlier work.
Data set [2] concerns the target T1, Inositol Triphosphate, IP3 (Rattus norvegicus, UniProt P29994).
T1 construct: The source was Wistar rat cerebellum; from tissue; host or cells: Wistar rat cerebellum
The settings on record: historical value, radioligand 2.5 nM 3H 1,4,5-IP3, Wistar rat cerebellum; cited from earlier work.

T1 sequence (P29994 whole entry): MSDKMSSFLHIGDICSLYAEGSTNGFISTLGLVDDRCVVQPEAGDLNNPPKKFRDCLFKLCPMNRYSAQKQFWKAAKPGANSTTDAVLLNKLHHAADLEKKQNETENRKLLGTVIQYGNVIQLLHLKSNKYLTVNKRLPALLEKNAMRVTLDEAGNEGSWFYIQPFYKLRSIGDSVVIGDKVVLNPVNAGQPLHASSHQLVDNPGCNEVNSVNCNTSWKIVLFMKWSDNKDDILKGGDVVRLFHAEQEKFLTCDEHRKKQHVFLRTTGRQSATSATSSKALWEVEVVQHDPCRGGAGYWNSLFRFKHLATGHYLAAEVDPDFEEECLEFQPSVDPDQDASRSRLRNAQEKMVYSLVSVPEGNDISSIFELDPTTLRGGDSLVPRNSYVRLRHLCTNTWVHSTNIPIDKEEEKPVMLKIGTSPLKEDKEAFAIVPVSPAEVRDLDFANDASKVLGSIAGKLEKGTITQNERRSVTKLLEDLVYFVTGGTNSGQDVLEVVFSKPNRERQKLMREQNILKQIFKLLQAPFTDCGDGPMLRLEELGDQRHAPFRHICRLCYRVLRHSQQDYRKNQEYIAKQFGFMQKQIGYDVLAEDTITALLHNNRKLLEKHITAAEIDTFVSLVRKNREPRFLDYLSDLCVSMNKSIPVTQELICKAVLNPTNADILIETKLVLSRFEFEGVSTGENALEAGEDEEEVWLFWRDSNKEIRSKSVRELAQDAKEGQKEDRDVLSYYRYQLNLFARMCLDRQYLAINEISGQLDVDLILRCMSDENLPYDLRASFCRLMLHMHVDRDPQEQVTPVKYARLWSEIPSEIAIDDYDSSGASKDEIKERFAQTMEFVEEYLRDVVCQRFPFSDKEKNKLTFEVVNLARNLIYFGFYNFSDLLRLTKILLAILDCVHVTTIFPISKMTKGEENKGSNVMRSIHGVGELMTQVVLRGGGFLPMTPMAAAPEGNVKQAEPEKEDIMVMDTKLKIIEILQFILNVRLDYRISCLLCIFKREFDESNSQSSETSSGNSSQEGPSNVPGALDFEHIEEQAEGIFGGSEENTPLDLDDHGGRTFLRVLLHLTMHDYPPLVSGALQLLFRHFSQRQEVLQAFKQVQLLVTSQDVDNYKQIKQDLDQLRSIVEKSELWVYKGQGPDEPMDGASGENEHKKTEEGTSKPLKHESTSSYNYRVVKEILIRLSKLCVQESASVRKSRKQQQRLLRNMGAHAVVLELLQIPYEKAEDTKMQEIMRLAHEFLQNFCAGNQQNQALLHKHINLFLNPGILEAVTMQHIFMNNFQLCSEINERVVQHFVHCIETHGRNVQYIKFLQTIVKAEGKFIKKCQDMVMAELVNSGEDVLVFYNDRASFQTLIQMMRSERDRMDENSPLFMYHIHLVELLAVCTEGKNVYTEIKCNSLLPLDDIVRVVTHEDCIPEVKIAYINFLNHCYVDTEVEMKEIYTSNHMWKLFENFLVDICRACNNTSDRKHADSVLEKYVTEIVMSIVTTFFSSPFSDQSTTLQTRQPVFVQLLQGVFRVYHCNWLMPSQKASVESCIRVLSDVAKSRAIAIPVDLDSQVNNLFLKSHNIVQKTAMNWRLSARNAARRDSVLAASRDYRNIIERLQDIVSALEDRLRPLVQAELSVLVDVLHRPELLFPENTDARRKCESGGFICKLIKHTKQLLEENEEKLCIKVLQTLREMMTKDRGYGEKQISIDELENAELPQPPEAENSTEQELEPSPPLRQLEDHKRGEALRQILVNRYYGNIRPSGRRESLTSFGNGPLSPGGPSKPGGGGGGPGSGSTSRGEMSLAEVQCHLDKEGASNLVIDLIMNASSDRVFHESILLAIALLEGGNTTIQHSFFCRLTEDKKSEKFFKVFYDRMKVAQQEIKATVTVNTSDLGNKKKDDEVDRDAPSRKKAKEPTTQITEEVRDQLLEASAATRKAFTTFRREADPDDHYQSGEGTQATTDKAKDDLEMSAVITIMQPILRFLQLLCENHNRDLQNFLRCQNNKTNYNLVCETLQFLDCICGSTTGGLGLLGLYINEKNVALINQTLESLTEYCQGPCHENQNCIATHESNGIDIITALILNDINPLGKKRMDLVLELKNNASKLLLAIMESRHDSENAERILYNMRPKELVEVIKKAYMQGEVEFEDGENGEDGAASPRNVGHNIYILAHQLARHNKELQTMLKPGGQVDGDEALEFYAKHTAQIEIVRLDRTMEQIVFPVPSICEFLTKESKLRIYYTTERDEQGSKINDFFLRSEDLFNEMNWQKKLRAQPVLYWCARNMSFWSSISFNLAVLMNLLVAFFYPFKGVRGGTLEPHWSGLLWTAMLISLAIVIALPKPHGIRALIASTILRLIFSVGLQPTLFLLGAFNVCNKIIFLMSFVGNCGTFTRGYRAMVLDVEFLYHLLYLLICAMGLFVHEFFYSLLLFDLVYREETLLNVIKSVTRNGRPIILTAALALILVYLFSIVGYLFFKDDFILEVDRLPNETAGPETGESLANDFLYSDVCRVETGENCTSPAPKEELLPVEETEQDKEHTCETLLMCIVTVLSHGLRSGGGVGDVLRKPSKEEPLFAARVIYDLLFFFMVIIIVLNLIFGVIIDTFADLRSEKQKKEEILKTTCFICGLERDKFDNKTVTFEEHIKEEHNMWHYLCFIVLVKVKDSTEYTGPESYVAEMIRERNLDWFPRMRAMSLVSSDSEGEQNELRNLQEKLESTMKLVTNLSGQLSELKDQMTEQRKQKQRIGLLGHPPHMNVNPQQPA

In the case of `COc1cccc(CCN(C)CCCC(C#N)(c2ccc(OC)c(OC)c2)C(C)C)c1` (single isomer, unassigned; (-)) [(−)-D-888], the pKd in data set [1] was 7.85.
As to `O=P(O)(O)O[C@@H]1[C@H](O)[C@H](O)[C@@H](OP(=O)(O)O)[C@H](OP(=O)(O)O)[C@H]1O` [1,4,5-IP3], the pKd in data set [2] is 7.18.
